Experimental data reported in patent US20240391932A1, “COMPOUNDS, COMPOSITIONS AND METHODS” (Nico Therapeutics, Inc., priority 2021, published 2024).

Tested on: NLRP3
Assay: IL-1β secretion assay in PMA-differentiated, LPS/nigericin-stimulated THP-1 cells (ELISA)
Type: cell-based
Details: Homo sapiens, 25 ng/mL LPS, nigericin
Protocol: Compounds as provided herein were tested in the following assay. Cell culture medium employed contained RPMI 1640 medium (89%), FBS (10%), Pen/Strep (1%), and 2-mercaptoethanol (0.05 mM). Freezing medium was made up of 90% FBS and 10% DMSO. THP-1 cells were removed from the liquid nitrogen and placed into a 37° C. water bath to thaw, until signs of ice dissipated. The cells were then added to 9 mL of warm cell culture medium and centrifuged for 5 minutes at 1000 rpm. The supernatant was discarded, and the cells were resuspended in new cell culture medium. THP-1 cells were then split and cultured in the cell culture medium, being passaged every 2-3 days with the cell density will be maintained between 5×10^5 and 1.5×10^6 viable cells/mL.
PMA was dissolved in DMSO to make a stock solution at 5 mg/ml and stored in 10 μl aliquots at −20° C. for single use. PMA is added to normal growth medium. LPS was diluted with 1 mL of water solution to provide a 1 mg/mL stock solution and stored in 15 μl aliquots at −20° C. for single use. Nigericin is diluted in ice cold 100% ethanol to 5 mg/ml (6.7 mM) and stored in 75 μL aliquots at −20° C. for single use. Serum-free media contains RPMI 1640 medium (99%), Pen/Strep (1%), and 2-mercaptoethanol (0.05 mM). The two control conditions used to qualify and normalize test compound dose-response curves were as follows: High Control=25 ng/mL LPS, 5 μM Nigericin, 0.5% DMSO, Low Control=25 ng/ml, LPS, 0.5% DMSO.
THP-1 cells were diluted to provide a suspension at a concentration of 1.0×10^6 cells/mL with the total volume of suspension required to enable the desired number of assay plates. The growth media was supplemented with PMA (5 ng/mL final concentration) and the cells were incubated at 37° C. under a humidified atmosphere of 5% CO2 for 40 h.
All media was carefully aspirated from each culture flask. The cells were washed carefully with 1× DPBS. The cells were then briefly digested with trypsin LE for 5 minutes at 23° C. and immediately resuspended in cell growth media. After resuspension, the cells were centrifuged at 1000 rpm for 3 minutes and the supernatant was discarded. The cells were resuspended in DPBS and once again centrifuged at 1000 rpm for 5 minutes. The supernatant was discarded and the cell pellet was resuspended in serum-free media supplemented with LPS (25 ng/mL final concentration) to enable the distribution of 30K THP-1 cells within 45 μL of media into each well of 384-well PDL-coated plates. The 384-well plates were then incubated at 37° C. under a humidified atmosphere of 5% CO2 for 2 h. Following this period, test compounds were dispensed by Tecan across the desired concentration range with all wells normalized to a final 0.5% DMSO concentration. The plates were then then incubated at 37° C. under a humidified atmosphere of 5% CO2 for 1 h. Following this period, 5 μL of the 5 mg/mL nigericin stock solution was added to each of the appropriate wells and plates were centrifuged at 1000 rpm for 30 seconds. The plates were the immediately reintroduced to the incubator at 37° C. under a humidified atmosphere of 5% CO2 for 2 h. After this time, 35 μL/well of supernatant was collected and transferred into v-bottom plate and centrifuged at 1000 rpm for 1 minute. These supernatant aliquots were analyzed using an IL-Iβ detection kit as described below. If needed, the test samples could be snap frozen and stored at −80° C. until analyzed.
To prepare each ELISA plate, capture antibody (mAb Mt175) was diluted with PBS to a final concentration of 2 μg/mL and then 20 μL of this solution was added to each well of the ELISA plate. Each plate was allowed to incubate overnight at 4° C. The next day, the capture antibody solution was removed and discarded. Each ELISA plate was washed 4 times with PBST followed by the addition of 25 uL/well of blocking buffer (Licor-927-40010) supplemented with 0.1% Tween 20. Each ELISA plate was then allowed to incubate for 1 hour at 23° C. […]

Row | IC50 [nM] | IC50 (class symbol) [nM] | Compound
1 | 162 | < 10000 | O=C(Cn1nc(C(F)F)n2c(cc3sccc32)c1=O)Nc1ncc(F)cn1 [Example 1, 2-(5-(difluoromethyl)-8-oxothieno[2′,3′:4,5]pyrrolo[1,2-d][1,2,4]triazin-7(8H)-yl)-N-(5-fluoropyrimidin-2-yl)acetamide]
2 | 94 | < 10000 | O=C(Cn1nc(CF)n2c(cc3sccc32)c1=O)Nc1ncc(F)cn1 [Example 5, 2-(5-(fluoromethyl)-8-oxothieno[2′,3′:4,5]pyrrolo [1,2-d][1,2,4]triazin-7(8H)-yl)-N-(5-fluoropyrimidin-2-yl)acetamide]
3 | 341 | < 10000 | O=C(Cn1nc(C(F)F)n2c(cc3sccc32)c1=O)Nc1ncccn1 [Example 2, 2-(5-(difluoromethyl)-8-oxothieno[2′,3′:4,5]pyrrolo[1,2-d][1,2,4]triazin-7(8H)-yl)-N-(pyrimidin-2-yl)acetamide]
4 | 101 | < 10000 | CC1(O)CC(NC(=O)Cn2nc(C(F)F)n3c(cc4sccc43)c2=O)C1 (stereo not drawn) [Example 3, 2-(5-(difluoromethyl)-8-oxothieno[2′,3′:4,5]pyrrolo[1,2-d][1,2,4]triazin-7(8H)-yl)-N-(3-cis-hydroxy-3-methylcyclobutyl)acetamide]
5 | 252 | < 10000 | N#Cc1cnc(NC(=O)Cn2nc(C(F)F)n3c(cc4sccc43)c2=O)c(F)c1 [Example 4, N-(5-cyano-3-fluoropyridin-2-yl)-2-[12-(difluoromethyl)-9-oxo-5-thia-1,10,11-triazatricyclo[6.4.0.02,6]dodeca-2(6),3,7,11-tetraen-10-yl]acetamide]
6 | 149 | < 10000 | O=C(Cn1nc(C(F)F)n2c(cc3scnc32)c1=O)Nc1ncc(F)cn1 [Example 6, 2-(5-(difluoromethyl)-8-oxothiazolo[5′,4′:4,5]pyrrolo[1,2-d][1,2,4]triazin-7(8H)-yl)-N-(5-fluoropyrimidin-2-yl)acetamide]
